According to patent US8575158B2, “1-phenyl-substituted heterocyclyl derivatives and their use as prostaglandin D2 receptor modulators” (Actelion Pharmaceuticals Ltd., priority 2010, dated 2013):
pIC50: −log10 of the molar value.

Biological target: T1, hCRTH2 receptor (Homo sapiens, UniProt Q9Y5Y4)
T1 construct: expressed in transfected cells; host or cells: HEK293
T1 sequence (Q9Y5Y4 1-395): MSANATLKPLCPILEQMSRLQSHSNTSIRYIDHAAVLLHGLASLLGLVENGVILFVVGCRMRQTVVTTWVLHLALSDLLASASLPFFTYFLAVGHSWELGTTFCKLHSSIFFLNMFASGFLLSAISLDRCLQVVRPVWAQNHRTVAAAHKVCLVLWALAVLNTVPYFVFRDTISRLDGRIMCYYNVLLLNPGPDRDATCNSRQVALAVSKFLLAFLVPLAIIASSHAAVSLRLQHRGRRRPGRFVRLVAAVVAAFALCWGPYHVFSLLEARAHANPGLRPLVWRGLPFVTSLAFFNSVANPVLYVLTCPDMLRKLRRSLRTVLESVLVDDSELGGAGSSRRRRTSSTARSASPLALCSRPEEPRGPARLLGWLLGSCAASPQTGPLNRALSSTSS
Assay: Radioligand displacement assay (3H-PGD2) on hCRTH2 receptor membranes
Assay type: binding
Details: antagonistic activity

[1] = 3H-PGD2 displacement on HEK293-hCRTH2 membrane fragments
[2] = 3H-PGD2 radioligand displacement, HEK293-hCRTH2 membranes

Structure (SMILES)	pIC50 [1]	pIC50 [2]	other results
O=C(O)COc1ccc(Cl)cc1C1c2ccccc2CCN1C(=O)OCc1cc(Cl)ccc1Cl (racemic) [Example 253]	8.19		
O=C(O)COc1ccc(Cl)cc1C1c2ccccc2CN1C(=O)CCOc1cccc(F)c1 (racemic) [Example 517]		6.91	
O=C(O)COc1ccc(F)cc1C1c2ccccc2CCN1C(=O)Cc1ccccc1 (racemic) [Example 124, (±)-[4-Fluoro-2-(2-phenylacetyl-1,2,3,4-tetrahydro-isoquinolin-1-yl)-phenoxy]-acetic acid]	6.38		
Cc1ccc(OCC(=O)N2Cc3ccccc3C2c2cc(Cl)ccc2OCC(=O)O)c(C)n1 (racemic) [Example 512]		7.37	
Cc1ccccc1[C@@H]1C[C@H]1C(=O)N1CCc2cc(F)ccc2C1c1cc(Cl)ccc1OCC(=O)O (mixture of isomers) [Example 431]		8.45	
COc1cc(OCC(=O)N2CCc3ccccc3C2c2cc(Cl)ccc2OCC(=O)O)cnc1OC (racemic) [Example 485]		6.50	
O=C(O)COc1ccc(Cl)cc1C1c2ccc(F)cc2CN1C(=O)CCn1ncc2ccccc21 (racemic) [Example 526, (±)-{4-Chloro-2-[5-fluoro-2-(3-indazol-1-yl-propionyl)-2,3-dihydro-1H-isoindol-1-yl]-phenoxy}-acetic acid]		8.34	
O=C(O)COc1ccccc1C1c2ccccc2CCN1C(=O)OCc1ccccc1 (racemic) [Example 366]		7.38	
CCS(=O)(=O)c1ccc2c(c1)C(c1cc(F)ccc1OCC(=O)O)N(C(=O)OCc1ccccc1)CC2 (racemic) [Example 181]	6.24		
COc1ccc(COC(=O)N2CCc3ccccc3C2c2cc(Cl)ccc2OCC(=O)O)cc1 (racemic) [Example 361]		7.64	
Cn1ccc(COCC(=O)N2CCc3ccccc3C2c2cc(F)ccc2OCC(=O)O)n1 (racemic) [Example 197, (±)-(4-Fluoro-2-{2-[2-(1-methyl-1H-pyrazol-3-ylmethoxy)-acetyl]-1,2,3,4-tetrahydro-isoquinolin-1-yl}-phenoxy)-acetic acid]	6.49		
O=C(O)COc1ccc(Cl)cc1[C@@H]1c2ccccc2CCN1C(=O)OCc1ccccc1F [Example 357, (S)-1-(2-Carboxymethoxy-5-chloro-phenyl)-3,4-dihydro-1H-isoquinoline-2-carboxylic acid 2-fluoro-benzyl ester]		8.91	
O=C(O)COc1ccc(Cl)cc1C1c2ccccc2CCN1C(=O)C1CC1c1ccccc1C(F)(F)F (single isomer, unassigned) [Example 155, (±)-(4-Chloro-2-{2-[(trans)-2-(2-trifluoromethyl-phenyl)-cyclopropanecarbonyl]-1,2,3,4-tetrahydro-iso-quinolin-1-yl}-phenoxy)-acetic acid (diatereoisomer 1)]	6.78		
Cn1nc(COC(=O)N2CCc3cc(F)ccc3[C@H]2c2cc(Cl)ccc2OCC(=O)O)c2ccccc21 [Example 346, (S)-1-(2-Carboxymethoxy-5-chloro-phenyl)-6-fluoro-3,4-dihydro-1H-isoquinoline-2-carboxylic acid 1-methyl-1H-indazol-3-ylmethyl ester]		8.94	
O=C(O)COc1ccc(Cl)cc1C1c2ccccc2CN1C(=O)CCn1ncc2c(F)cccc21 (single isomer, unassigned) [Example 535, (4-Chloro-2-{2-[3-(4-fluoro-indazol-1-yl)-propionyl]-2,3-dihydro-1H-isoindol-1-yl}-phenoxy)-acetic acid]		7.82	
O=C(O)COc1ccc(Cl)cc1[C@@H]1c2ccc(F)cc2CCN1C(=O)OCc1ccncn1 [Example 333, (S)-1-(2-Carboxymethoxy-5-chloro-phenyl)-6-fluoro-3,4-dihydro-1H-isoquinoline-2-carboxylic acid pyrimidin-4-ylmethyl ester]		7.34	
O=C(O)COc1ccc(Cl)cc1C1c2ccccc2CCN1C(=O)OCc1ccccc1Cl (racemic) [Example 164]	9.03		
Cc1noc(C)c1COC(=O)N1CCc2ccccc2[C@H]1c1cc(Cl)ccc1OCC(=O)O [Example 281, (S)-1-(2-Carboxymethoxy-5-chloro-phenyl)-3,4-dihydro-1H-isoquinoline-2-carboxylic acid 3,5-dimethyl-isoxazol-4-ylmethyl ester]	8.32		
O=C(O)COc1ccc(Cl)cc1[C@@H]1c2ccc(F)cc2CCN1C(=O)CCn1ncc2ccc(F)cc21 [Example 398]		7.19	
O=C(O)COc1ccc(Cl)cc1C1c2ccccc2CCN1C(=O)CCN1Cc2ccccc2C1=O (racemic) [Example 445]		6.89	
Cc1ccc(OCC(=O)N2CCc3ccccc3C2c2cc(Cl)ccc2OCC(=O)O)cn1 (racemic) [Example 468]		6.12	
CN(CC(=O)N1CCc2ccccc2C1c1cc(F)ccc1OCC(=O)O)S(=O)(=O)c1ccccc1 (racemic) [Example 210]	6.37		

Structure (SMILES)	pIC50 [1]	pIC50 [2]	other results
Cc1cccc(-n2cncc2CCC(=O)N2CCc3ccccc3C2c2cc(Cl)ccc2OCC(=O)O)c1C (racemic) [Example 85, (±)-[4-Chloro-2-(2-{3-[3-(2,3-dimethyl-phenyl)-3H-imidazol-4-yl]-propionyl}-1,2,3,4-tetrahydro-isoquinolin-1-yl)-phenoxy]-acetic acid]	7.72		
O=C(O)COc1ccc(Cl)cc1C1c2ccccc2CCN1C(=O)CCc1nccn1-c1ccccc1 (racemic) [Example 83, (±)-(4-Chloro-2-{2-[3-(1-phenyl-1H-imidazol-2-yl)-propionyl]-1,2,3,4-tetrahydro-isoquinolin-1-yl}-phenoxy)-acetic acid]	6.37		
O=C(O)COc1ccc(Cl)cc1C1c2ccccc2CCN1C(=O)NCc1cccc(F)c1 (racemic) [Example 491]		7.70	
O=C(O)COc1ccc(Cl)cc1C1c2ccccc2CCN1C(=O)CCOc1cccc(Cl)c1 (racemic) [Example 95, (±)-(4-Chloro-2-{2-[3-(3-chloro-phenoxy)-propionyl]-1,2,3,4-tetrahydro-isoquinolin-1-yl}-phenoxy)-acetic acid]	7.56		
O=C(O)COc1ccc(Cl)cc1C1c2ccc(F)c(F)c2CN1C(=O)OCc1ccccc1 (racemic) [Example 559]		7.95	
Cc1nn(CCC(=O)N2Cc3ccccc3C2c2cc(Cl)ccc2OCC(=O)O)c2cccc(F)c12 (single isomer, unassigned) [Example 528, (4-Chloro-2-{2-[3-(4-fluoro-3-methyl-indazol-1-yl)-propionyl]-2,3-dihydro-1H-isoindol-1-yl}-phenoxy)-acetic acid]		7.48	
Cc1ccccc1[C@@H]1C[C@H]1C(=O)N1CCc2ccccc2C1c1cc(Cl)ccc1OCC(=O)O (mixture of isomers) [Example 422]		8.25	
O=C(O)COc1ccc(Cl)cc1C1c2ccccc2CCN1C(=O)OCc1ccc(Cl)cc1Cl (racemic) [Example 241]	9.02		
O=C(O)COc1ccc(Cl)cc1C1c2ccccc2CCN1C(=O)[C@@H]1C[C@H]1c1ccc(Cl)cc1Cl (mixture of isomers) [Example 158]	7.42		
O=C(O)COc1ccc(Cl)cc1C1c2ccccc2CCN1C(=O)COc1cnccc1Cl (racemic) [Example 487]		6.40	
Cc1ccc(CCCC(=O)N2CCc3ccccc3C2c2cc(Cl)ccc2OCC(=O)O)cc1 (racemic) [Example 97, (±)-{4-Chloro-2-[2-(4-p-tolyl-butyryl)-1,2,3,4-tetrahydro-isoquinolin-1-yl]-phenoxy}-acetic acid]	8.01		
O=C(O)COc1ccc(Cl)cc1[C@@H]1c2ccc(F)cc2CCN1C(=O)OCc1ccccc1 [Example 367]		8.31	
O=C(O)COc1ccc(F)cc1C1c2ccccc2CCN1C(=O)CCc1c(Cl)cccc1Cl (racemic) [Example 53, (±)-(2-{2-[3-(2,6-Dichloro-phenyl)-propionyl]-1,2,3,4-tetrahydro-isoquinolin-1-yl}-4-fluoro-phenoxy)-acetic acid]	6.06		
COc1ccc(OCC(=O)N2CCc3ccccc3C2c2cc(Cl)ccc2OCC(=O)O)cn1 (racemic) [Example 486]		6.43	
O=C(O)COc1ccc(Cl)cc1[C@@H]1c2ccccc2CCN1C(=O)[C@@H]1C[C@H]1c1ccc(F)cc1 [Example 566, (4-Chloro-2-{(S)-2-[(1R,2R)-2-(4-fluoro-phenyl)-cyclopropanecarbonyl]-1,2,3,4-tetrahydro-isoquinolin-1-yl}-phenoxy)-acetic acid]			pIC50 (radioligand displacement (3H-PGD2), hCRTH2 receptor membranes): 8.66
O=C(O)COc1ccc(F)cc1C1c2ccc(F)cc2CCN1C(=O)OCc1ccccc1 (racemic) [Example 163]	8.38		
O=C(O)COc1ccc(F)cc1C1c2cc(F)c(F)cc2CCN1C(=O)OCc1ccccc1 (racemic) [Example 9, (±)-1-(2-Carboxymethoxy-5-fluoro-phenyl)-6,7-difluoro-3,4-dihydro-1H-isoquinoline-2-carboxylic acid benzyl ester]	7.45		
O=C(O)COc1ccc(-c2ccc(F)cc2)cc1C1c2ccccc2CCN1C(=O)OCc1ccccc1 (racemic) [Example 189, (±)-1-(4-Carboxymethoxy-4′-fluoro-biphenyl-3-yl)-3,4-dihydro-1H-isoquinoline-2-carboxylic acid benzyl ester]	7.63		
O=C(O)COc1ccc(Cl)cc1C1c2ccccc2CN1C(=O)COCc1ccccc1Cl (racemic) [Example 521]		8.04	
C[C@@H]1C[C@H]1C(=O)N1CCc2ccccc2[C@H]1c1cc(Cl)ccc1OCC(=O)O [Example 462]		7.09	
O=C(O)COc1ccc(Cl)cc1C1c2ccccc2CN1C(=O)CCN1CCc2ccccc21 (racemic) [Example 514]		7.41	
